Key:
Experiment in all cases: radiometric filter-binding kinase assay
MAPKAPK3 (human) = MAPKAPK3 (human) (UniProt Q16644)
SYK (human) = SYK (human) (UniProt P43405)
BRSK2 (human) = BRSK2 (human) (UniProt Q8IWQ3)
MAP2K6 (human) = MAP2K6 (human) (UniProt P52564)
NEK2 (human) = NEK2 (human) (UniProt P51955)
RPS6KA1 KD1 KD2 (human) = RPS6KA1 KD1 KD2 (human) (UniProt Q15418)
IKBKE (human) = IKBKE (human) (UniProt Q14164)
MAPK8 (human) = MAPK8 (human) (UniProt P45983)
MAPK10 (human) = MAPK10 (human) (UniProt P53779)
DYRK1A (human) = DYRK1A (human) (UniProt Q13627)
EPHB2 (human) = EPHB2 (human) (UniProt P29323)
ERBB4 (human) = ERBB4 (human) (UniProt Q15303)
PAK7 (human) = PAK7 (human) (UniProt Q9P286)
CaMK1 (human) = CaMK1 (human) (UniProt Q14012)
MAPK12 (human) = MAPK12 (human) (UniProt P53778)
[1] = test system: AKT1 (human), P31749 [S473D]
MAP3K11 (human) = MAP3K11 (human) (UniProt Q16584)
MKNK1 (human) = MKNK1 (human) (UniProt Q9BUB5)
MARK2 (human) = MARK2 (human) (UniProt Q7KZI7)
EPHB3 (human) = EPHB3 (human) (UniProt P54753)
PLK1 (human) = PLK1 (human) (UniProt P53350)
[2] = test system: SGK1 (human), O00141 [S422D]
DYRK2 (human) = DYRK2 (human) (UniProt Q92630)
MST4 (human) = MST4 (human) (UniProt Q9P289)
PRKACA (human) = PRKACA (human) (UniProt P17612)
PRKCA (human) = PRKCA (human) (UniProt P17252)
NUAK1 (human) = NUAK1 (human) (UniProt O60285)
MAPK13 (human) = MAPK13 (human) (UniProt O15264)
PAK4 (human) = PAK4 (human) (UniProt O96013)
AURKA (human) = AURKA (human) (UniProt O14965)
CHEK2 (human) = CHEK2 (human) (UniProt O96017)
MAPK1 (human) = MAPK1 (human) (UniProt P28482)
MAPK3 (human) = MAPK3 (human) (UniProt P27361)

Sequence of MAPK8 (human) (P45983 whole entry, looked up): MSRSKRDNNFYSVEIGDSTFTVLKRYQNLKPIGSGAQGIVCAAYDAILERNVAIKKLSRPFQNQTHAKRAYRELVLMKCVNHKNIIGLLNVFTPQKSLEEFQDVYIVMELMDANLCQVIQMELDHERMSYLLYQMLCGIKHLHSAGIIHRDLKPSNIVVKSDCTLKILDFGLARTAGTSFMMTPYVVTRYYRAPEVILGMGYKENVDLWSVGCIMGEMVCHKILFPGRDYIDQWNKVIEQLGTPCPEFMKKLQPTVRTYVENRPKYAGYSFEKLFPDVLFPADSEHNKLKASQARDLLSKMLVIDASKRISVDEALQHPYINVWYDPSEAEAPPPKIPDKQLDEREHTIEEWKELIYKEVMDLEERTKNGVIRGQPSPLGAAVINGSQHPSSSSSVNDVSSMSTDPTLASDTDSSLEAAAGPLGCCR
Sequence of AKT1 (human), P31749 [S473D] (P31749 whole entry S473D, looked up): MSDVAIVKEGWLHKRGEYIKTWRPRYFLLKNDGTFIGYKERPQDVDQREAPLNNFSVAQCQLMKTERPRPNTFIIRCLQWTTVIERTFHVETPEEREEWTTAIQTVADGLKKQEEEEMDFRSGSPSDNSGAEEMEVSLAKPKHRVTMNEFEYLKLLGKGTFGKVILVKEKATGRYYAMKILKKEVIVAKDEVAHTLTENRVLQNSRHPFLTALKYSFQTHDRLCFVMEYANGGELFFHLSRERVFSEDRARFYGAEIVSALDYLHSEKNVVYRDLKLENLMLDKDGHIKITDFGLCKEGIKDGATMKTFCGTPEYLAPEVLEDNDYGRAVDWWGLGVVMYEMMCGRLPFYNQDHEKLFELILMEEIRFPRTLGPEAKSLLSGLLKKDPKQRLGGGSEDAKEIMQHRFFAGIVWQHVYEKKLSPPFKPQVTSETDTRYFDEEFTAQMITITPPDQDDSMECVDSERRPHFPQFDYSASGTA
Sequence of EPHB3 (human) (P54753 whole entry, looked up): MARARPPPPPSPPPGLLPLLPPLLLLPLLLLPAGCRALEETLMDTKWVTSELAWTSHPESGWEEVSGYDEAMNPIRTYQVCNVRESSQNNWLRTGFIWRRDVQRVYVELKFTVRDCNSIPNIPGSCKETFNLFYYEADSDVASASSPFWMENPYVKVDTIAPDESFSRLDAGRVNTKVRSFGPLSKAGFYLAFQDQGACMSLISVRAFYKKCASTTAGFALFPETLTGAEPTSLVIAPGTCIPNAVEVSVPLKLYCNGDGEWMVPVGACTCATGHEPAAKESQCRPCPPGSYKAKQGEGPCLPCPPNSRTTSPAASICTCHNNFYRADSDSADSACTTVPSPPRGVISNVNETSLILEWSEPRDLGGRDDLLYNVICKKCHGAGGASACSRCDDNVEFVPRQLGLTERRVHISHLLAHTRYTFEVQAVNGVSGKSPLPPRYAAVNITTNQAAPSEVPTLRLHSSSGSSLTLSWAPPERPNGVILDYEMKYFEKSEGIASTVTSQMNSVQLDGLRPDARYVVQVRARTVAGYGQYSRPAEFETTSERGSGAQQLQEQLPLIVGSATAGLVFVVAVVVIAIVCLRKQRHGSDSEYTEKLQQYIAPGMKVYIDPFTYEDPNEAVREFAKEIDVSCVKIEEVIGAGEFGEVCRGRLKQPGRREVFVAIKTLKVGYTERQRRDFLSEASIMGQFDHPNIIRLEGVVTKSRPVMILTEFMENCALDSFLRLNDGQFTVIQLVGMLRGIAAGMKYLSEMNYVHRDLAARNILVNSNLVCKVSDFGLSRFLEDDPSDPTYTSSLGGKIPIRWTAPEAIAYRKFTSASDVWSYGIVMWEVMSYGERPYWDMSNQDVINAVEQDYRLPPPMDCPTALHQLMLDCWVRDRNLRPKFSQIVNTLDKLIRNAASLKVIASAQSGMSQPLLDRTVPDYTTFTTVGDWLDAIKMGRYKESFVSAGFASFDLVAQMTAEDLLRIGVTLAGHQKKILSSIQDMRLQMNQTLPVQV
Sequence of EPHB2 (human) (P29323 whole entry, looked up): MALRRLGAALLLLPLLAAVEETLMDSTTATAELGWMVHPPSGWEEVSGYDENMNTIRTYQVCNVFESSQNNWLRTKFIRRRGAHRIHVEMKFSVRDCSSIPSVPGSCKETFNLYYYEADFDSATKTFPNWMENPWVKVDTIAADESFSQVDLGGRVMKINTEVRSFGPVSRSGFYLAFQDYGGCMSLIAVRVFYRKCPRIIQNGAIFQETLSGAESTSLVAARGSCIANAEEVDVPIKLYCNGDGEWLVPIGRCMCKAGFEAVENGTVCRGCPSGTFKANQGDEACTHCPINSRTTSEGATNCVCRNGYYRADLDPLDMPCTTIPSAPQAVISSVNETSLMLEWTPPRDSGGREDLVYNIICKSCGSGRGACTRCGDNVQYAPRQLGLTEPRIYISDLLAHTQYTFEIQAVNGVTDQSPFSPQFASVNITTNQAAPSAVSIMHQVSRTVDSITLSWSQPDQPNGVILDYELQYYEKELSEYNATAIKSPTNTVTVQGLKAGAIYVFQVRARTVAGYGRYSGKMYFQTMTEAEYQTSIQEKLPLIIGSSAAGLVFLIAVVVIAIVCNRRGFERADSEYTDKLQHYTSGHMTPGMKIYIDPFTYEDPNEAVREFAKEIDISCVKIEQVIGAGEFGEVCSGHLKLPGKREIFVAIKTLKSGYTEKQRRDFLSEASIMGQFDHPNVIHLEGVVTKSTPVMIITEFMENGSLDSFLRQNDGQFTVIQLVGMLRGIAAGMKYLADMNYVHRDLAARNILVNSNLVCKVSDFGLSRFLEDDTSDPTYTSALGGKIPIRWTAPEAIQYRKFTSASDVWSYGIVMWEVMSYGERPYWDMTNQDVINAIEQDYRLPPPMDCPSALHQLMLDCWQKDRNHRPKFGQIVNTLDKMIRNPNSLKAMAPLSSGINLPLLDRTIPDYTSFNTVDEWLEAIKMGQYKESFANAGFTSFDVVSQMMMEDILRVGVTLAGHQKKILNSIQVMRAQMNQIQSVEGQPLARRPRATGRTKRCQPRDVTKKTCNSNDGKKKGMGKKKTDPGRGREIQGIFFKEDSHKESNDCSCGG
Sequence of CHEK2 (human) (O96017 whole entry, looked up): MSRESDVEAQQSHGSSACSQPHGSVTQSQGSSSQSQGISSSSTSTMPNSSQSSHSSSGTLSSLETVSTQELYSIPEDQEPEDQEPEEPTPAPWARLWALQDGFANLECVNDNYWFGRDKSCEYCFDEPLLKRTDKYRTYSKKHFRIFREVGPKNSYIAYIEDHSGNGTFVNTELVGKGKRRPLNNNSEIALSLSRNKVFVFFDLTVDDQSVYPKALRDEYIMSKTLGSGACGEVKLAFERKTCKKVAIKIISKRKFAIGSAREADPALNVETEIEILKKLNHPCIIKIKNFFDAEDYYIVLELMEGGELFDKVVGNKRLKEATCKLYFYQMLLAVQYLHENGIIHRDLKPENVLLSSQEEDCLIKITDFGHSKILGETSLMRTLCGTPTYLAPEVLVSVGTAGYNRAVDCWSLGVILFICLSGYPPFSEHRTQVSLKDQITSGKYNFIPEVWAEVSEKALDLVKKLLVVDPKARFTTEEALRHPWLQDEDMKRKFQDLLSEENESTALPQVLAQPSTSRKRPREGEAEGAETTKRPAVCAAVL
Sequence of MARK2 (human) (Q7KZI7 whole entry, looked up): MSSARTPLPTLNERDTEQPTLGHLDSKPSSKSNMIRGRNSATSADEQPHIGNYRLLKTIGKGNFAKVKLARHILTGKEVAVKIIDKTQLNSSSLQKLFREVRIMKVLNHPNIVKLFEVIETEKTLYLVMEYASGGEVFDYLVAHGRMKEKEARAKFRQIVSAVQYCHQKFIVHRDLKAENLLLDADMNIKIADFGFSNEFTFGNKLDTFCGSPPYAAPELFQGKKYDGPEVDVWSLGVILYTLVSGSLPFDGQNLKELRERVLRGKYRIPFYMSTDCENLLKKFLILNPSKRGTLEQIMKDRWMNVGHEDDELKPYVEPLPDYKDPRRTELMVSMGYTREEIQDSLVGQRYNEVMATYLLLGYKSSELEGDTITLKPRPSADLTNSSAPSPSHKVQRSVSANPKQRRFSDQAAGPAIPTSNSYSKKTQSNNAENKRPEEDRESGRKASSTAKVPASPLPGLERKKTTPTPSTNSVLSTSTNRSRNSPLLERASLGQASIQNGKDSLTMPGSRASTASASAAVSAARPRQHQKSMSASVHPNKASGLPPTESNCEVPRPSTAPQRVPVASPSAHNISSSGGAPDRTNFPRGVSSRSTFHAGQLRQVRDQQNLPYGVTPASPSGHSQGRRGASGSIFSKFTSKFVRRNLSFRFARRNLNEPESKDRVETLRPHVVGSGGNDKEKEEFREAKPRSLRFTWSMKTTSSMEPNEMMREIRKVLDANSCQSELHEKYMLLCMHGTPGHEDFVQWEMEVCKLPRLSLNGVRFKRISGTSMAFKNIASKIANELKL
Sequence of CaMK1 (human) (Q14012 whole entry, looked up): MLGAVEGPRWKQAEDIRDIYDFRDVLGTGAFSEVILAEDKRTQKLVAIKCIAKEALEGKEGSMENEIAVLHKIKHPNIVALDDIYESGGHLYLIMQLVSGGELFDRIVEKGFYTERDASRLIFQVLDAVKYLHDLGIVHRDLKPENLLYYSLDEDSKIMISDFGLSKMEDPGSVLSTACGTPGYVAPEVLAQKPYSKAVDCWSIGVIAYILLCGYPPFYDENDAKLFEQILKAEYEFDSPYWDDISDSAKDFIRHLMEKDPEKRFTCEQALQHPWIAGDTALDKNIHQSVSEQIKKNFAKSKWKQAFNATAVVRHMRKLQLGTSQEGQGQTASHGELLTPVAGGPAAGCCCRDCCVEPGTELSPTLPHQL
Sequence of MAPK13 (human) (O15264 whole entry, looked up): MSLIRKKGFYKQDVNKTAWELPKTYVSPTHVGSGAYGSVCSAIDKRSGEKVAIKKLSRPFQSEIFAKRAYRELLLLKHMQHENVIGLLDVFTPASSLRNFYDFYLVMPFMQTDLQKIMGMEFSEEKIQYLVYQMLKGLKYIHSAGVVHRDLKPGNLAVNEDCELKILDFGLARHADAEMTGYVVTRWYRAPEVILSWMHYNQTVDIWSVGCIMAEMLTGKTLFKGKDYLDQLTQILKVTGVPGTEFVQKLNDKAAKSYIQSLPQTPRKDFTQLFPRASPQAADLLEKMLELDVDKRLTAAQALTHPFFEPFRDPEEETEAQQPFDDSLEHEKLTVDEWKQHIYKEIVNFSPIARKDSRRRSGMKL

With COc1ccc(N(C(=O)Nc2c(C)cccc2C)c2cc(Nc3ccc(N4CCN(C)CC4)cc3)ncn2)c(OC)c1 the residual activity (MAPKAPK3 (human); compound 0.01 µM) was 96%, the residual activity (MAPKAPK3 (human); compound 0.1 µM) was 90% and the residual activity (MAPKAPK3 (human); compound 1.0 µM) was 75%. It also gave a residual activity (SYK (human); compound 0.01 µM) of 112%, a residual activity (SYK (human); compound 0.1 µM) of 104% and a residual activity (SYK (human); compound 1.0 µM) of 100%. It also gave a residual activity (BRSK2 (human); compound 0.1 µM) of 97%, a residual activity (BRSK2 (human); compound 1.0 µM) of 88% and a residual activity (MAP2K6 (human); compound 0.1 µM) of 101%. It also gave a residual activity (MAP2K6 (human); compound 1.0 µM) of 92%, a residual activity (NEK2 (human); compound 0.01 µM) of 112% and a residual activity (NEK2 (human); compound 0.1 µM) of 93%. The residual activity (NEK2 (human); compound 1.0 µM) was 95%, the residual activity (RPS6KA1 KD1 KD2 (human); compound 0.01 µM) was 106% and the residual activity (RPS6KA1 KD1 KD2 (human); compound 0.1 µM) was 91%. The residual activity (RPS6KA1 KD1 KD2 (human); compound 1.0 µM) was 38%, the residual activity (IKBKE (human); compound 0.1 µM) was 94% and the residual activity (IKBKE (human); compound 1.0 µM) was 102%. For the same compound, the residual activity (MAPK8 (human); compound 0.01 µM) was 94%, the residual activity (MAPK8 (human); compound 0.1 µM) was 107% and the residual activity (MAPK8 (human); compound 1.0 µM) was 86%. For the same compound, the residual activity (MAPK10 (human); compound 0.01 µM) was 93%, the residual activity (MAPK10 (human); compound 0.1 µM) was 77% and the residual activity (MAPK10 (human); compound 1.0 µM) was 38%. The residual activity (DYRK1A (human); compound 0.01 µM) was 100%, the residual activity (DYRK1A (human); compound 0.1 µM) was 95% and the residual activity (DYRK1A (human); compound 1.0 µM) was 93%. For the same compound, the residual activity (EPHB2 (human); compound 0.01 µM) was 109%, the residual activity (EPHB2 (human); compound 0.1 µM) was 43% and the residual activity (EPHB2 (human); compound 1.0 µM) was 1%. It also gave a residual activity (ERBB4 (human); compound 0.01 µM) of 90%, a residual activity (ERBB4 (human); compound 1.0 µM) of 18% and a residual activity (PAK7 (human); compound 0.01 µM) of 95%. For the same compound, the residual activity (PAK7 (human); compound 0.1 µM) was 91%, the residual activity (PAK7 (human); compound 1.0 µM) was 72% and the residual activity (CaMK1 (human); compound 0.01 µM) was 97%. For the same compound, the residual activity (CaMK1 (human); compound 0.1 µM) was 90%, the residual activity (CaMK1 (human); compound 1.0 µM) was 90% and the residual activity (MAPK12 (human); compound 0.01 µM) was 110%. For the same compound, the residual activity (MAPK12 (human); compound 0.1 µM) was 112%, the residual activity (MAPK12 (human); compound 1.0 µM) was 105% and the residual activity ([1]; compound 0.01 µM) was 98%. The residual activity ([1]; compound 0.1 µM) was 92%, the residual activity ([1]; compound 1.0 µM) was 91% and the residual activity (MAP3K11 (human); compound 0.01 µM) was 105%. For the same compound, the residual activity (MAP3K11 (human); compound 0.1 µM) was 100%, the residual activity (MAP3K11 (human); compound 1.0 µM) was 70% and the residual activity (MKNK1 (human); compound 0.01 µM) was 109%. For the same compound, the residual activity (MKNK1 (human); compound 0.1 µM) was 116%, the residual activity (MKNK1 (human); compound 1.0 µM) was 112% and the residual activity (MARK2 (human); compound 0.01 µM) was 101%. It also gave a residual activity (MARK2 (human); compound 0.1 µM) of 90%, a residual activity (MARK2 (human); compound 1.0 µM) of 63% and a residual activity (EPHB3 (human); compound 0.01 µM) of 108%. The residual activity (EPHB3 (human); compound 0.1 µM) was 61%, the residual activity (EPHB3 (human); compound 1.0 µM) was 18% and the residual activity (PLK1 (human); compound 0.01 µM) was 98%. For the same compound, the residual activity (PLK1 (human); compound 0.1 µM) was 102%, the residual activity (PLK1 (human); compound 1.0 µM) was 97% and the residual activity ([2]; compound 0.01 µM) was 94%. For the same compound, the residual activity ([2]; compound 1.0 µM) was 93%, the residual activity (DYRK2 (human); compound 0.01 µM) was 89% and the residual activity (DYRK2 (human); compound 0.1 µM) was 85%. For the same compound, the residual activity (DYRK2 (human); compound 1.0 µM) was 93%, the residual activity (MST4 (human); compound 0.01 µM) was 100% and the residual activity (MST4 (human); compound 0.1 µM) was 95%. The residual activity (MST4 (human); compound 1.0 µM) was 78%, the residual activity (PRKACA (human); compound 0.01 µM) was 91% and the residual activity (PRKACA (human); compound 0.1 µM) was 96%. It also gave a residual activity (PRKACA (human); compound 1.0 µM) of 79%, a residual activity (PRKCA (human); compound 0.01 µM) of 102% and a residual activity (PRKCA (human); compound 0.1 µM) of 102%. For the same compound, the residual activity (PRKCA (human); compound 1.0 µM) was 104%, the residual activity (NUAK1 (human); compound 0.01 µM) was 97% and the residual activity (NUAK1 (human); compound 0.1 µM) was 93%. The residual activity (NUAK1 (human); compound 1.0 µM) was 64%, the residual activity (MAPK13 (human); compound 0.01 µM) was 102% and the residual activity (MAPK13 (human); compound 0.1 µM) was 97%. For the same compound, the residual activity (MAPK13 (human); compound 1.0 µM) was 98%, the residual activity (PAK4 (human); compound 0.01 µM) was 116% and the residual activity (PAK4 (human); compound 0.1 µM) was 97%. The residual activity (PAK4 (human); compound 1.0 µM) was 94%, the residual activity (AURKA (human); compound 0.01 µM) was 98% and the residual activity (AURKA (human); compound 0.1 µM) was 91%. It also gave a residual activity (AURKA (human); compound 1.0 µM) of 70%, a residual activity (CHEK2 (human); compound 0.01 µM) of 89% and a residual activity (CHEK2 (human); compound 0.1 µM) of 75%. For the same compound, the residual activity (CHEK2 (human); compound 1.0 µM) was 34%, the residual activity (MAPK1 (human); compound 0.01 µM) was 103% and the residual activity (MAPK1 (human); compound 0.1 µM) was 110%. The residual activity (MAPK1 (human); compound 1.0 µM) was 109%, the residual activity (MAPK3 (human); compound 0.01 µM) was 104% and the residual activity (MAPK3 (human); compound 0.1 µM) was 101%. The residual activity (MAPK3 (human); compound 1.0 µM) was 95%.

— the kinase profiling compilation of Christmann-Franck et al. (2016)
